# Measurements reported in patent US5061689A, “Zinc bacitracin containing wound dressing” (Bioderm, Inc., priority 1986, dated 1991).
# Legend:
# [1] = tested on: deep partial thickness wounds; experiment: 7% bacitracin zinc ointment with and without polyurethane occlusion, healing of deep partial thickness wounds (Example II); assay type: in vivo, white Yorkshire pigs
# Text: (§1) To test the effect of bacitracin zinc on epidermal resurfacing, approximately 60 rectangular wounds measuring 7 mm wide, 10 mm long, and 0.5 mm deep were made in each of eighteen white Yorkshire pigs in the paravertebral and thoracic areas with a Castroviejo keratome. The electrokeratome was fitted with a razor blade modified so that the cutting edge was reduced to 7 mm. The wounds were separated from one another by at least 15 mm of normal skin.
# (§2) The bacitracin zinc was applied in impregnated foam shortly (within 5 minutes) after wounding on day 0 and once daily thereafter for 7 days. In order to rule out the possibility that wounds made in different anatomical regions heal at different rates the regions used for each treatment group varied for each animal.
# (§3) Two days after wounding and each day thereafter some of the wounds with surrounding normal skin were excised from each treatment group. The excisions were made with a Castroviejo keratome fitted with a 22 mm blade, set to cut at a depth of 0.7 mm. After incubating the specimens in 2N sodium bromide at 37° C. for three hours, the epidermis was separated from the dermis and the epidermal sheet (22 sq mm) was assessed for re-epithelialization as previously described. Briefly, this method is a macroscopic examination of the separated epidermis for defects. Defects are visualized as holes in the separated epidermal sheet or as a lack of epidermal continuum in the area that contain the wound. The wound is considered re-epithelialized if there are no defects in the epidermis and not re-epithelialized if there are one or more defects.
# Further tests were conducted to determine the effect of bacitracin zinc covered with an occlusive film. The wounds in these were treated according to one of four treatment regiments: (1) untreated; (2) polyurethane film; (3) 7% bacitracin zinc ointment, and (4) 7% bacitracin zinc ointment plus polyurethane film. The methodology employed was substantially the same as in Example I.
# [2] = tested on: epidermal wounds; experiment: Effect of bacitracin zinc impregnated foam dressing on epidermal wound healing (Example I); assay type: in vivo, white Yorkshire pigs; details: for HT50 (time in days for 50% of wounds to be completely healed): probit analysis
# Text: as §1
# On each of the experimental animals, approximately one third of the wounds were assigned to one of three treatment groups: (1) control (no treatment), (2) vehicle alone, (low melting point petrolatum 3.0 g) or (3) bacitracin zinc (either 1%, 2.5%, 5%, 7%, 10% or 20% in 3.0 g). A total of 99 wounds on 3 pigs were treated with each of the varying bacitracin zinc combinations. Vehicle was applied to 594 wounds in 18 animals. The other 594 wounds were the untreated controls.
# as §2, §3
# The time needed for 50% of the wounds in each experimental animal to heal HT50) has been estimated from curves generated by probit analysis of the data presented in Table I. The HT50 values and the relative rate of healing are compared in Table II. Wounds treated with 7% bacitracin zinc healed 46% more rapidly than untreated wounds and 28% faster than wounds treated with the ointment alone. Vehicle treated wounds healed approximately 25% faster than wounds left open to the air.
# [3] = bacitracin zinc as 7% ointment, listed as BAC. ZN
substance,measurement,setting,value
bacitracin zinc,HT50 (time in days for 50% of wounds to be completely healed),[1]; bacitracin zinc as 7% ointment,4.1 days
same,rate of healing COMPARED WITH PU FILM,[1]; bacitracin zinc as 7% ointment,about 4%
same,rate of healing Compared with Untreated,[1]; bacitracin zinc as 7% ointment,about 24%
same,rate of healing COMPARED WITH PU FILM,[1]; [3],+4%
same,rate of healing Compared with Untreated,[1]; [3],+24%
same,% of wounds healed,"[1]; day 2 after wounding, bacitracin zinc as 7% ointment",0%
same,% of wounds healed,"[1]; day 3 after wounding, bacitracin zinc as 7% ointment",19%
same,% of wounds healed,"[1]; day 4 after wounding, bacitracin zinc as 7% ointment",42%
same,% of wounds healed,"[1]; day 5 after wounding, bacitracin zinc as 7% ointment",77%
same,% of wounds healed,"[1]; day 6 after wounding, bacitracin zinc as 7% ointment",92%
same,% of wounds healed,"[1]; day 7 after wounding, bacitracin zinc as 7% ointment",100%
same,further enhancement in the rate of healing over bacitracin zinc used alone,[1]; semipermeable occlusive film applied over the bacitracin zinc impregnated pad,20%
same,rate of healing Compared with Untreated,[2]; 1% bacitracin zinc,+23%
same,rate of healing Compared with Vehicle,[2]; 1% bacitracin zinc,0%
same,% of wounds healed,"[2]; 1% bacitracin zinc in impregnated foam, day 2 after wounding",0%
same,% of wounds healed,"[2]; 1% bacitracin zinc in impregnated foam, day 3 after wounding",0%
same,% of wounds healed,"[2]; 1% bacitracin zinc in impregnated foam, day 4 after wounding",40%
same,% of wounds healed,"[2]; 1% bacitracin zinc in impregnated foam, day 5 after wounding",58%
same,% of wounds healed,"[2]; 1% bacitracin zinc in impregnated foam, day 6 after wounding",95%
same,% of wounds healed,"[2]; 1% bacitracin zinc in impregnated foam, day 7 after wounding",100%
same,HT50 (time in days for 50% of wounds to be completely healed),[2]; 1% bacitracin zinc,4.5 days
same,rate of healing Compared with Untreated,[2]; 2.5% bacitracin zinc,+25%
same,rate of healing Compared with Vehicle,[2]; 2.5% bacitracin zinc,2%
same,% of wounds healed,"[2]; 2.5% bacitracin zinc in impregnated foam, day 2 after wounding",0%
same,% of wounds healed,"[2]; 2.5% bacitracin zinc in impregnated foam, day 3 after wounding",0%
same,% of wounds healed,"[2]; 2.5% bacitracin zinc in impregnated foam, day 4 after wounding",36%
same,% of wounds healed,"[2]; 2.5% bacitracin zinc in impregnated foam, day 5 after wounding",60%
same,% of wounds healed,"[2]; 2.5% bacitracin zinc in impregnated foam, day 6 after wounding",96%
same,% of wounds healed,"[2]; 2.5% bacitracin zinc in impregnated foam, day 7 after wounding",100%
same,HT50 (time in days for 50% of wounds to be completely healed),[2]; 2.5% bacitracin zinc,4.4 days
same,rate of healing Compared with Untreated,[2]; 5.0% bacitracin zinc,+34%
same,rate of healing Compared with Vehicle,[2]; 5.0% bacitracin zinc,13%
same,% of wounds healed,"[2]; 5.0% bacitracin zinc in impregnated foam, day 2 after wounding",0%
same,% of wounds healed,"[2]; 5.0% bacitracin zinc in impregnated foam, day 3 after wounding",11%
same,% of wounds healed,"[2]; 5.0% bacitracin zinc in impregnated foam, day 4 after wounding",54%
same,% of wounds healed,"[2]; 5.0% bacitracin zinc in impregnated foam, day 5 after wounding",77%
same,% of wounds healed,"[2]; 5.0% bacitracin zinc in impregnated foam, day 6 after wounding",95%
same,% of wounds healed,"[2]; 5.0% bacitracin zinc in impregnated foam, day 7 after wounding",100%
same,HT50 (time in days for 50% of wounds to be completely healed),[2]; 5.0% bacitracin zinc,3.9 days
same,rate of wound re-epithelialization compared with both untreated and vehicle treated wounds,[2]; 7% bacitracin zinc,significantly greater
same,rate of healing Compared with Untreated,[2]; 7.0% bacitracin zinc,+46%
same,rate of healing Compared with Vehicle,[2]; 7.0% bacitracin zinc,28%
same,% of wounds healed,"[2]; 7.0% bacitracin zinc in impregnated foam, day 2 after wounding",0%
same,% of wounds healed,"[2]; 7.0% bacitracin zinc in impregnated foam, day 3 after wounding",36%
same,% of wounds healed,"[2]; 7.0% bacitracin zinc in impregnated foam, day 4 after wounding",70%
same,% of wounds healed,"[2]; 7.0% bacitracin zinc in impregnated foam, day 5 after wounding",98%
same,% of wounds healed,"[2]; 7.0% bacitracin zinc in impregnated foam, day 6 after wounding",100%
same,% of wounds healed,"[2]; 7.0% bacitracin zinc in impregnated foam, day 7 after wounding",100%
same,rate of healing Compared with Untreated,"[2]; 7.0% bacitracin zinc, listed as bacitracin zinc",46%
same,HT50 (time in days for 50% of wounds to be completely healed),[2]; 7.0% bacitracin zinc,3.2 days
same,rate of healing Compared with Untreated,[2]; 10.0% bacitracin zinc,+19%
same,rate of healing Compared with Vehicle,[2]; 10.0% bacitracin zinc,-6%
same,% of wounds healed,"[2]; 10.0% bacitracin zinc in impregnated foam, day 2 after wounding",0%
same,% of wounds healed,"[2]; 10.0% bacitracin zinc in impregnated foam, day 3 after wounding",2%
same,% of wounds healed,"[2]; 10.0% bacitracin zinc in impregnated foam, day 4 after wounding",33%
same,% of wounds healed,"[2]; 10.0% bacitracin zinc in impregnated foam, day 5 after wounding",66%
same,% of wounds healed,"[2]; 10.0% bacitracin zinc in impregnated foam, day 6 after wounding",92%
same,% of wounds healed,"[2]; 10.0% bacitracin zinc in impregnated foam, day 7 after wounding",100%
same,HT50 (time in days for 50% of wounds to be completely healed),[2]; 10.0% bacitracin zinc,4.8 days
same,rate of healing Compared with Untreated,[2]; 20.0% bacitracin zinc,+19%
same,rate of healing Compared with Vehicle,[2]; 20.0% bacitracin zinc,-6%
same,% of wounds healed,"[2]; 20.0% bacitracin zinc in impregnated foam, day 2 after wounding",0%
same,% of wounds healed,"[2]; 20.0% bacitracin zinc in impregnated foam, day 3 after wounding",0%
same,% of wounds healed,"[2]; 20.0% bacitracin zinc in impregnated foam, day 4 after wounding",42%
same,% of wounds healed,"[2]; 20.0% bacitracin zinc in impregnated foam, day 5 after wounding",58%
same,% of wounds healed,"[2]; 20.0% bacitracin zinc in impregnated foam, day 6 after wounding",96%
same,% of wounds healed,"[2]; 20.0% bacitracin zinc in impregnated foam, day 7 after wounding",100%
same,HT50 (time in days for 50% of wounds to be completely healed),[2]; 20.0% bacitracin zinc,4.8 days
same,effect on healing,[2]; levels higher than 5% to 8% bacitracin zinc,tend in inhibit rather than promote healing
same,rate of wound re-epithelialization compared with ointment vehicle treated wounds,"[2]; the other concentrations of bacitracin zinc (1%, 2.5%, 5%, 10%, 20%)",no significant difference
